Measurements from patent US4124766A, “Substituted 3-(4-imidazolylmethylene)carbazic and thiocarbazic acid esters” (American Cyanamid Company, priority 1977, dated 1978).

Key:
[1] = system: mouse skin PDE (cyclic-AMP phosphodiesterase); assay: Mouse skin phosphodiesterase (PDE) inhibition test (A); assay type: biochemical, mouse (hairless mice); set-up: key to Mouse Skin Phosphodiesterase (A): Active: A compound is considered active if it inhibits more than theophylline, that is, to 50% of control at 1 mM concentration of compound, or to 80% of control for 0.05 mM concentration of compound; settings: for Mouse Skin Phosphodiesterase (A): final concentration of test compound 10 ug./ml, active = inhibits more than theophylline
[2] = system: monkey lung cyclic AMP phosphodiesterase; assay: Monkey lung phosphodiesterase inhibition test (B); assay type: biochemical, African green monkey; set-up: key to Monkey Lung Phosphodiesterase (B): Active: A compound is considered active if it inhibits more than theophylline, that is, to 50% of control at 1 mM concentration of compound, or to 80% of control for 0.05 mM concentration of compound; settings: for Monkey Lung Phosphodiesterase (B): test compound usually 1 mM or 0.1 mM, active = inhibits more than theophylline
Method: Lung parenchyma of African green monkeys is homogenized in a Waring blender and centrifuged at 40,000 × gravity for 20 minutes. The supernatant is brought to 70% saturation of ammonium sulfate, centrifuged and the pellet redissolved and dialysed, before aliquoting and storage at -20° C.
Phosphodiesterase is assayed by the method of Thompson and Appleman, ibid. An assay tube contains a 0.4 ml. solution of the following: 45 mM tris-HCl buffer, pH 7.4, 6.25 mM MgCl2, 0.1 mM dithioerythritol, 10^-6 M cyclic AMP, 0.1 uCi [^3 H]-cyclic AMP, and test compound at the desired concentration (usually 1 mM or 0.1 mM). Compounds not readily soluble in water are dissolved at 40 times the desired concentration in methanol, and diluted 20 times with water. If the compound is not dissolved at this time, it is suspended by sonication before being diluted 1:2 into the assay tube. In this case the activity of the enzyme in the presence of the compound is compared to a solvent control (2.5% methanol), although the solvent alone has negligible effect. The reaction is initiated by addition of enzyme and proceedes at 25° C. for 20 minutes. It is terminated by incubation at 100° C. for 2 minutes. The tubes are cooled to 25° C., 0.8 ug of 5'-nucleotidase (Crotolus adamantus toxin) is added to each and the tubes incubated at 25° C. for 30 minutes. A one milliliter suspension of Bio-Rad Labs. AGIX8® (about 0.5 ml. of settled resin) is added, the tubes centrifuged at 900 × gravity for 10 minutes and an aliquot of supernatant removed for scintillation counting. The inhibition by the test compound is calculated as: [formula] where `compound` is the cpm in the presence of compound, `control` is the cpm in the absence of compound, and `blank` is the cpm in the absence of enzyme. […] For this reason, control tubes which contained [^3 H]-AMP instead of [^3 H]-cyclic AMP are run in parallel. A correction of the apparent phosphodiesterase activity is made for the rare compound which inhibited the hydrolysis of AMP.
A compound is considered active if it inhibits more than theophylline, that is, to 50% of control at 1 mM concentration of compound, or to 80% of control for 0.05 mM concentration of compound.

Row | SMILES | Mouse Skin Phosphodiesterase (A) [1] | Monkey Lung Phosphodiesterase (B) [2] | phosphodiesterase activity, % of control (theophylline benchmark) ([1]; 0.05 mM concentration of compound, criterion stated for skin (A) or lung (B)) [%] | phosphodiesterase activity, % of control (theophylline benchmark) ([2]; 1 mM concentration of compound, criterion stated for skin (A) or lung (B)) [%]
1 | Cc1nc(C)n2c(=O)[nH]ncc12 [6,8-Dimethyl-imidazo[1,5-d]-as-triazin-4(3H)-one] | Active | Active | – | –
2 | Cc1nc(C)n2c(=S)[nH]ncc12 [6,8-Dimethyl-imidazo[1,5-d]-as-triazine-4(3H)-thione] | Active | – | – | –
3 | Cc1nc(Cc2ccccc2)n2c(=O)[nH]ncc12 [6-Benzyl-8-methyl-imidazo[1,5-d]-as-triazin-4(3H)-one] | Active | – | – | –
4 | Cc1nc(Cc2ccccc2)n2c(=S)[nH]ncc12 [6-Benzyl-8-methyl-imidazo[1,5-d]-as-triazine-4(3H)-thione] | Active | Active | – | –
5 | O=c1[nH]ncc2cnc(Cc3ccccc3)n12 [6-Benzyl-imidazo[1,5-d]-as-triazin-4(3H)-one] | Active | – | – | –
6 | O=c1[nH]ncc2cnc(-c3ccccc3)n12 [6-Phenyl-imidazo[1,5-d]-as-triazin-4(3H)-one] | Active | – | – | –
7 | CCCc1ncc2cn[nH]c(=O)n12 [6-n-Propyl-imidazo[1,5-d]-as-triazin-4(3H)-one] | Active | – | – | –
8 | CCCc1ncc2cn[nH]c(=S)n12 [6-n-Propyl-imidazo[1,5-d]-as-triazine-4(3H)-thione] | Active | Active | – | –
9 | Cn1c(=O)c2[nH]cnc2n(C)c1=O [theophylline, reference compound] | – | – | 80 | 50

More lines, main results first:

Row | Mouse Skin Phosphodiesterase (A) [1] | Monkey Lung Phosphodiesterase (B) [2] | SMILES | phosphodiesterase activity, % of control (theophylline benchmark) ([1]; 0.05 mM concentration of compound, criterion stated for skin (A) or lung (B)) [%] | phosphodiesterase activity, % of control (theophylline benchmark) ([2]; 1 mM concentration of compound, criterion stated for skin (A) or lung (B)) [%]
10 | Active | – | CCCOc1ccccc1-c1ncc2cn[nH]c(=O)n12 [6-o-Propoxyphenyl-imidazo[1,5-d]-as-triazin-4(3H)-one] | – | –
11 | Active | Active | Cc1nc(C(C)(C)C)n2c(=O)[nH]ncc12 [6-tert-Butyl-8-methyl-imidazo[1,5-d]-as-triazin-4(3H)-one] | – | –
12 | Active | – | CC(C)(C)c1ncc2cn[nH]c(=O)n12 [6-tert-Butyl-imidazo[1,5-d]-as-triazin-4(3H)-one] | – | –
13 | Active | Active | O=c1[nH]ncc2c(Br)nc(-c3ccccc3)n12 [8-Bromo-6-phenyl-imidazo[1,5-d]-as-triazin-4(3H)-one] | – | –
14 | Active | Active | O=c1[nH]ncc2c(Cl)nc(-c3ccccc3)n12 [8-Chloro-6-phenyl-imidazo[1,5-d]-as-triazin-4(3H)-one] | – | –
15 | Active | Active | CCCc1nc(C)c2cn[nH]c(=S)n12 [8-Methyl-6-n-propyl-imidazo[1,5-d]-as-triazine-4(3H)-thione] | – | –
16 | Active | Active | Cc1nc(-c2ccccc2)n2c(=O)[nH]ncc12 [8-Methyl-6-phenyl-imidazo[1,5-d]-as-triazin-4(3H)-one] | – | –
17 | Active | – | Cc1nc(-c2ccccc2)n2c(=S)[nH]ncc12 [8-Methyl-6-phenyl-imidazo[1,5-d]-as-triazine-4(3H)-thione] | – | –
18 | Active | – | Cc1ncn2c(=O)[nH]ncc12 [8-Methyl-imidazo[1,5-d]-as-triazin-4(3H)-one] | – | –
19 | Active | – | Cc1ncn2c(=S)[nH]ncc12 [8-Methyl-imidazo[1,5-d]-as-triazine-4(3H)-thione] | – | –
